Laboratory results reported in ChEMBL document CHEMBL1146901, “Synthesis and pharmacological study of novel pyrido-quinazolone analogues as anti-fungal, antibacterial, and anticancer agents” (Bioorg Med Chem Lett, 2006).

Legend:
Aspergillus flavus [1] = assay: Antifungal activity against Aspergillus flavus at 10 ug/ml by agar plate method; type: functional
Aspergillus niger [2] = assay: Antifungal activity against Aspergillus niger at 20 ug/ml by agar plate method; type: functional
MCF7 [3] = assay: Cytotoxicity against human MCF7 cells; type: functional, cell-based
Aspergillus niger [4] = assay: Antifungal activity against Aspergillus niger at 10 ug/ml by agar plate method; type: functional
MCF7 [5] = assay: Cytotoxicity against human MCF7 cells assessed as decrease in number of cells relative to control; type: functional, cell-based
Aspergillus niger [6] = assay: Antifungal activity against Aspergillus niger at 100 ug/ml by agar plate method; type: functional
Klebsiella pneumoniae = assay: Antibacterial activity against Klebsiella pneumoniae by disk diffusion method; type: functional
Pseudomonas aeruginosa = assay: Antibacterial activity against Pseudomonas aeruginosa by disk diffusion method; type: functional
Aspergillus flavus [7] = assay: Antifungal activity against Aspergillus flavus at 20 ug/ml by agar plate method; type: functional
Staphylococcus aureus = assay: Antibacterial activity against Staphylococcus aureus by disk diffusion method; type: functional
Aspergillus flavus [8] = assay: Antifungal activity against Aspergillus flavus at 100 ug/ml by agar plate method; type: functional
Aspergillus niger [9] = assay: Antifungal activity against Aspergillus niger at 50 ug/ml by agar plate method; type: functional
Aspergillus flavus [10] = assay: Antifungal activity against Aspergillus flavus at 50 ug/ml by agar plate method; type: functional

| SMILES | inhibition at 10 µg/mL (Aspergillus flavus [1]) [%] | inhibition at 20 µg/mL (Aspergillus niger [2]) [%] | IC50 (MCF7 [3]) [µM] | inhibition at 10 µg/mL (Aspergillus niger [4]) [%] | Activity (MCF7 [5]) | inhibition at 100 µg/mL (Aspergillus niger [6]) [%] | inhibition zone (IZ) (Klebsiella pneumoniae) [mm] | inhibition zone (IZ) (Pseudomonas aeruginosa) [mm] | inhibition at 20 µg/mL (Aspergillus flavus [7]) [%] | inhibition zone (IZ) (Staphylococcus aureus) [mm] | inhibition at 100 µg/mL (Aspergillus flavus [8]) [%] | inhibition at 50 µg/mL (Aspergillus niger [9]) [%] | inhibition at 50 µg/mL (Aspergillus flavus [10]) [%] |
| --- | --- | --- | --- | --- | --- | --- | --- | --- | --- | --- | --- | --- | --- |
| O=C1Nc2cc3c(-c4ccccc4)c(-c4ccccc4)n(-c4ccccc4)c(=O)c3cc2C(c2ccccc2)N1 (centres undefined) | 53.3 | 75 | 4.4 | 60 | Toxic | 95 | 6 | 10 | 60 | >14 | 86.7 | 90 | 73.3 |
| O=C1Nc2cc3c(-c4ccccc4)c(-c4ccccc4)n(-c4ccc(Cl)cc4)c(=O)c3cc2C(c2ccccc2)N1 (centres undefined) | 60 | 70 | 25.6 | 50 | Toxic | 90 | 10 | 10 | 76.7 | 10 | 93.3 | 80 | 83.3 |
| O=C1NCc2cc3c(=O)n(-c4ccccc4)c(-c4ccccc4)c(-c4ccccc4)c3cc2N1 | ≤ 25 | ≤ 25 | 8.5 | ≤ 25 | – | ≤ 25 | 6 | 6 | ≤ 25 | 6 | ≤ 25 | ≤ 25 | ≤ 25 |
| COc1ccc(-n2c(-c3ccccc3)c(-c3ccccc3)c3cc4c(cc3c2=O)C(c2ccccc2)NC(=O)N4)cc1 (centres undefined) | ≤ 25 | ≤ 25 | 11.4 | ≤ 25 | Not toxic | ≤ 25 | 6 | 6 | ≤ 25 | 6 | ≤ 25 | ≤ 25 | ≤ 25 |
| O=C1NCc2cc3c(=O)n(-c4ccc(Cl)cc4)c(-c4ccccc4)c(-c4ccccc4)c3cc2N1 | ≤ 25 | ≤ 25 | 3.7 | ≤ 25 | Not toxic | ≤ 25 | 6 | 6 | ≤ 25 | 6 | ≤ 25 | ≤ 25 | ≤ 25 |
